“Also recorded” adds a separate entry of the source.
Experiments:
[1] = tested on: cholesterol oxidase derived from ST-200 strain; test: Effect of metal ions and the like on enzyme activity; assay type: biochemical, Pseudomonas sp. ST-200; conditions: pH 7
[2] = tested on: cholesterol oxidase derived from ST-200 strain; test: Substrate specificity of enzyme; assay type: biochemical, Pseudomonas sp. ST-200; conditions: for Relative activity (%): various substrates, 30° C., pH 7, enzyme activity with cholesterol set to be 100
[3] = tested on: cholesterol oxidase derived from Nocardia erythropolis; test: Effect of organic solvents on enzyme activity (Nocardia erythropolis); assay type: biochemical; conditions: organic solvent 50% by volume of reaction solution; pH 7, 30° C.; no solvent = 1
[4] = tested on: cholesterol oxidase derived from Streptomyces sp.; test: Effect of organic solvents on enzyme activity (Streptomyces sp.); assay type: biochemical; conditions: organic solvent 50% by volume of reaction solution; pH 7, 30° C.; no solvent = 1
[5] = tested on: cholesterol oxidase derived from Pseudomonas sp.; test: Effect of organic solvents on enzyme activity (Pseudomonas sp.); assay type: biochemical; conditions: organic solvent 50% by volume of reaction solution; pH 7, 30° C.; no solvent = 1
[6] = tested on: cholesterol oxidase derived from Brevibacterium sp.; test: Effect of organic solvents on enzyme activity (Brevibacterium sp.); assay type: biochemical; conditions: organic solvent 50% by volume of reaction solution; pH 7, 30° C.; no solvent = 1
[7] = tested on: cholesterol oxidase derived from ST-200 strain; test: Effect of organic solvents on enzyme activity (ST-200); assay type: biochemical, Pseudomonas sp. ST-200; conditions: for Relative activity, ST-200: organic solvent 50% by volume of reaction solution, pH 7, 30° C., no solvent = 1; for Reaction velocity in solvent compared to cholesterol oxidases of Nocardia erythropolis, Pseudomonas sp., Streptomyces sp., Brevibacterium sp. (in words): organic solvent 50% by volume, 30° C., pH 7
[8] = tested on: cholesterol oxidase derived from Pseudomonas sp. ST-200 (FERM BP-6661); test: Effect of metal ions and the like (additives) on enzyme activity; assay type: biochemical; conditions: additive at 1 mM; activity without additive = 100; cholesterol substrate, 30° C., pH 7
Protocol: Effect of metal ions and the like on the activity of the enzyme obtained in Example 1 was studied. Enzyme activity was measured as described in Test Example 1 at 30° C. at pH 7 after adding various metal compounds, to a final concentration of […], to the reaction system.

[9] = additive 1 mM, 30° C., cholesterol as substrate, activity without additive set to be 100

[Cl][Ni][Cl] [Nickel chloride]
Relative activity (%) [1]: 90%

CC[C@H](CC[C@@H](C)[C@H]1CC[C@H]2[C@@H]3CC=C4C[C@@H](O)CC[C@]4(C)[C@H]3CC[C@]12C)C(C)C [β-sitosterol, sitost-5-en-3β-ol]
Action of the enzyme on the substrate (in words) [2]: strongly oxidized
Relative activity (%) [2]: 84%

Oc1cccc2cccnc12 [8-hydroxyquinoline, reference compound]
Relative activity (%) [1]: 85%

CC(C)[C@@H](C)C=C[C@@H](C)[C@H]1CC[C@H]2C3=CC=C4C[C@@H](O)CC[C@]4(C)[C@H]3CC[C@]12C [Ergosterol, Ergosta-5,7,22-trien-3β-ol]
Relative activity (%) [2]: 20%

CC(C)CCC[C@@H](C)[C@H]1CC[C@H]2[C@@H]3CC[C@H]4C[C@@H](O)CC[C@]4(C)[C@H]3CC[C@]12C [β-cholestanol]
Action of the enzyme on the substrate (in words) [2]: strongly oxidized
Relative activity (%) [2]: 69%

[Cl-].[Cl-].[Zn+2] [Zinc chloride]
Relative activity (%) [1]: 92%

O=S(=O)([O-])[O-].[Cu+2] [Copper sulfate]
Relative activity (%) [1, 9]: 105%

CC(C)CCC[C@@H](C)[C@H]1CC[C@H]2[C@@H]3CC=C4C[C@H](O)CC[C@]4(C)[C@H]3CC[C@]12C [Epicholesterol, Cholest-5-en-3α-ol]
Action of the enzyme on the substrate (in words) [2]: does not act on; also recorded: did not act on
Relative activity (%) [2]: 0%

c1ccccc1 [Benzene]
Relative activity, Nocardia erythropolis [3]: 1.5
Relative activity, Streptomyces sp. [4]: 0.9
Relative activity, Pseudomonas sp. [5]: 1.3
Relative activity, Brevibacterium sp. [6]: 0.5
Effect of organic solvent on reaction velocity (in words) [7]: increased
Relative activity, ST-200 [7]: 3.0
Reaction velocity in solvent compared to cholesterol oxidases of Nocardia erythropolis, Pseudomonas sp., Streptomyces sp., Brevibacterium sp. (in words) [7]: higher reaction velocity

Iron sulfate
Relative activity (%) [1, 9]: 94%

ClC(Cl)Cl [Chloroform]
Relative activity, Nocardia erythropolis [3]: 0.3
Relative activity, Streptomyces sp. [4]: 0.1
Relative activity, Pseudomonas sp. [5]: 0.1
Relative activity, Brevibacterium sp. [6]: <0.1
Relative activity, ST-200 [7]: 0.2

Cc1ccc(C)cc1 [Paraxylene]
Relative activity, Nocardia erythropolis [3]: 1.6
Relative activity, Streptomyces sp. [4]: 1.1
Relative activity, Pseudomonas sp. [5]: 1.5
Relative activity, Brevibacterium sp. [6]: 0.7
Effect of organic solvent on reaction velocity (in words) [7]: increased
Relative activity, ST-200 [7]: 3.4
Reaction velocity in solvent compared to cholesterol oxidases of Nocardia erythropolis, Pseudomonas sp., Streptomyces sp., Brevibacterium sp. (in words) [7]: higher reaction velocity

C[C@]12CC[C@H](O)C[C@@H]1CC[C@@H]1[C@@H]2CC[C@]2(C)C(=O)CC[C@@H]12 [Epiandrosterone, 5α-androstan-3β-ol-17-one]
Relative activity (%) [2]: 10%

c1cnc2c(c1)ccc1cccnc12 [o-phenanthroline]
Relative activity [8]: 92%

C1CCCCCCC1 [Cyclooctane]
Relative activity, Nocardia erythropolis [3]: 1.1
Relative activity, Streptomyces sp. [4]: 0.4
Relative activity, Pseudomonas sp. [5]: 0.8
Relative activity, Brevibacterium sp. [6]: 0.2
Effect of organic solvent on reaction velocity (in words) [7]: increased
Relative activity, ST-200 [7]: 1.4
Reaction velocity in solvent compared to cholesterol oxidases of Nocardia erythropolis, Pseudomonas sp., Streptomyces sp., Brevibacterium sp. (in words) [7]: higher reaction velocity

From patent US20030153051A1, “Cholesterol oxidase” (priority 1998, published 2003)
